In US9693556B2, “Herbicidal pyridazinone derivatives” (SYNGENTA LIMITED, priority 2011, dated 2017):

How the values were obtained:
Format in all cases: in vivo
[1] = system: Amaranthus retoflexus (AMARE); test: Post-emergence herbicidal glasshouse test on Amaranthus retoflexus; settings: post-emergence; 1000 g/h; evaluated after 13 days
How it was run: (§1)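 Application rate 1000 g/h, formulated in acetone/water (50:50) with 0.5% Tween 20 and sprayed onto pots sown 1 day (pre-emergence) or 8 days (post-emergence) earlier. Evaluation at 13 days rated damage from 1 (0-19%) to 5 (80-100%).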

[2] = system: Echinochloa crus-galli (ECHCG); test: Post-emergence herbicidal glasshouse test on Echinochloa crus-galli; settings: post-emergence; 1000 g/h; evaluated after 13 days
How it was run: as §1

[3] = system: Ipomoea hederacea (IPOHE); test: Pre-emergence herbicidal glasshouse test on Ipomoea hederacea; settings: pre-emergence; 1000 g/h; evaluated after 13 days
How it was run: as §1

Solanum nigrum (SOLNI) [4] = test: Pre-emergence herbicidal glasshouse test on Solanum nigrum; settings: pre-emergence; 1000 g/h; evaluated after 13 days
How it was run: as §1

[5] = system: Echinochloa crus-galli (ECHCG); test: Pre-emergence herbicidal glasshouse test on Echinochloa crus-galli; settings: pre-emergence; 1000 g/h; evaluated after 13 days
How it was run: as §1

[6] = system: Amaranthus retoflexus (AMARE); test: Pre-emergence herbicidal glasshouse test on Amaranthus retoflexus; settings: pre-emergence; 1000 g/h; evaluated after 13 days
How it was run: as §1

[7] = system: Alopecurus myosuroides (ALOMY); test: Pre-emergence herbicidal glasshouse test on Alopecurus myosuroides; settings: pre-emergence; 1000 g/h; evaluated after 13 days
How it was run: as §1

Setaria faberi (SETFA) [8] = test: Post-emergence herbicidal glasshouse test on Setaria faberi; settings: post-emergence; 1000 g/h; evaluated after 13 days
How it was run: as §1

[9] = system: Alopecurus myosuroides (ALOMY); test: Post-emergence herbicidal glasshouse test on Alopecurus myosuroides; settings: post-emergence; 1000 g/h; evaluated after 13 days
How it was run: as §1

[10] = system: Ipomoea hederacea (IPOHE); test: Post-emergence herbicidal glasshouse test on Ipomoea hederacea; settings: post-emergence; 1000 g/h; evaluated after 13 days
How it was run: as §1

Setaria faberi (SETFA) [11] = test: Pre-emergence herbicidal glasshouse test on Setaria faberi; settings: pre-emergence; 1000 g/h; evaluated after 13 days
How it was run: as §1

Solanum nigrum (SOLNI) [12] = test: Post-emergence herbicidal glasshouse test on Solanum nigrum; settings: post-emergence; 1000 g/h; evaluated after 13 days
How it was run: as §1

| SMILES | POST Application AMARE herbicidal damage (five point scale) [1] | POST Application ECHCG herbicidal damage (five point scale) [2] | PRE Application IPOHE herbicidal damage (five point scale) [3] | PRE Application SOLNI herbicidal damage (five point scale) (Solanum nigrum (SOLNI) [4]) | PRE Application ECHCG herbicidal damage (five point scale) [5] | PRE Application AMARE herbicidal damage (five point scale) [6] | PRE Application ALOMY herbicidal damage (five point scale) [7] | POST Application SETFA herbicidal damage (five point scale) (Setaria faberi (SETFA) [8]) | POST Application ALOMY herbicidal damage (five point scale) [9] | POST Application IPOHE herbicidal damage (five point scale) [10] | PRE Application SETFA herbicidal damage (five point scale) (Setaria faberi (SETFA) [11]) | POST Application SOLNI herbicidal damage (five point scale) (Solanum nigrum (SOLNI) [12]) |
| --- | --- | --- | --- | --- | --- | --- | --- | --- | --- | --- | --- | --- |
| COc1cccn(-c2cnn(C)c(=O)c2O)c1=O [Compound 1.070] | 3 (3=40-59% damage) | 4 (4=60-79% damage) | 1 (1=0-19% damage) | 1 (1=0-19% damage) | 1 (1=0-19% damage) | 1 (1=0-19% damage) | 1 (1=0-19% damage) | 4 (4=60-79% damage) | 1 (1=0-19% damage) | 1 (1=0-19% damage) | 1 (1=0-19% damage) | 4 (4=60-79% damage) |
| Cn1ncc(-n2ccc(C(F)(F)F)c(-c3cc(F)c(F)c(F)c3)c2=O)c(O)c1=O [Compound 7.017] | 5 (5=80-100% damage) | 5 (5=80-100% damage) | 4 (4=60-79% damage) | 5 (5=80-100% damage) | 5 (5=80-100% damage) | 5 (5=80-100% damage) | 5 (5=80-100% damage) | 5 (5=80-100% damage) | 5 (5=80-100% damage) | 5 (5=80-100% damage) | 5 (5=80-100% damage) | 5 (5=80-100% damage) |
| Cn1ncc(-n2ccc(C(F)(F)F)c(-c3ccc([N+](=O)[O-])cc3)c2=O)c(O)c1=O [Compound 7.009] | 5 (5=80-100% damage) | 5 (5=80-100% damage) | 4 (4=60-79% damage) | 5 (5=80-100% damage) | 5 (5=80-100% damage) | 5 (5=80-100% damage) | 5 (5=80-100% damage) | 5 (5=80-100% damage) | 5 (5=80-100% damage) | 5 (5=80-100% damage) | 5 (5=80-100% damage) | 5 (5=80-100% damage) |
| Cn1ncc(-c2ccc(Cl)cc2S(C)(=O)=O)c(O)c1=O [Compound 1.061] | 5 (5=80-100% damage) | 5 (5=80-100% damage) | 4 (4=60-79% damage) | 5 (5=80-100% damage) | 5 (5=80-100% damage) | 5 (5=80-100% damage) | 5 (5=80-100% damage) | 5 (5=80-100% damage) | 5 (5=80-100% damage) | 5 (5=80-100% damage) | 5 (5=80-100% damage) | 5 (5=80-100% damage) |
| Cc1c(Cl)ccc(-c2cnn(C)c(=O)c2O)c1F [Compound 1.045] | 2 (2=20-39% damage) | 1 (1=0-19% damage) | 1 (1=0-19% damage) | 1 (1=0-19% damage) | 1 (1=0-19% damage) | 1 (1=0-19% damage) | 1 (1=0-19% damage) | 1 (1=0-19% damage) | 1 (1=0-19% damage) | 1 (1=0-19% damage) | 1 (1=0-19% damage) | 4 (4=60-79% damage) |
| Cc1cc(-c2cnn(C)c(=O)c2O)c(=O)n(-c2ccccc2)c1 [Compound 6.001] | 5 (5=80-100% damage) | 5 (5=80-100% damage) | 1 (1=0-19% damage) | 1 (1=0-19% damage) | 1 (1=0-19% damage) | 1 (1=0-19% damage) | 1 (1=0-19% damage) | 3 (3=40-59% damage) | 3 (3=40-59% damage) | 1 (1=0-19% damage) | 1 (1=0-19% damage) | 5 (5=80-100% damage) |
| CCS(=O)(=O)c1nc(C(F)(F)F)ccc1-c1cnn(C)c(=O)c1O [Compound 1.135] | 5 (5=80-100% damage) | 5 (5=80-100% damage) | 5 (5=80-100% damage) | 5 (5=80-100% damage) | 5 (5=80-100% damage) | 5 (5=80-100% damage) | 4 (4=60-79% damage) | 5 (5=80-100% damage) | 4 (4=60-79% damage) | 5 (5=80-100% damage) | 5 (5=80-100% damage) | 5 (5=80-100% damage) |
| Cn1ncc(-n2cccc(-c3ccc(C(F)(F)F)cc3)c2=O)c(O)c1=O [Compound 7.001] | 3 (3=40-59% damage) | 4 (4=60-79% damage) | 1 (1=0-19% damage) | 1 (1=0-19% damage) | 1 (1=0-19% damage) | 1 (1=0-19% damage) | 1 (1=0-19% damage) | 3 (3=40-59% damage) | 2 (2=20-39% damage) | 2 (2=20-39% damage) | 1 (1=0-19% damage) | 4 (4=60-79% damage) |
| CC(C)N(C)S(=O)(=O)c1nc(C(F)(F)F)ccc1-c1cnn(C)c(=O)c1O [Compound 4.017] | 5 (5=80-100% damage) | 5 (5=80-100% damage) | 5 (5=80-100% damage) | 5 (5=80-100% damage) | 5 (5=80-100% damage) | 5 (5=80-100% damage) | 4 (4=60-79% damage) | 5 (5=80-100% damage) | 5 (5=80-100% damage) | 5 (5=80-100% damage) | 4 (4=60-79% damage) | 5 (5=80-100% damage) |
| COc1ccc(-n2cccc(-c3cnn(C)c(=O)c3O)c2=O)cc1 [Compound 9.016] | 5 (5=80-100% damage) | 4 (4=60-79% damage) | 1 (1=0-19% damage) | 1 (1=0-19% damage) | 1 (1=0-19% damage) | 1 (1=0-19% damage) | 2 (2=20-39% damage) | 3 (3=40-59% damage) | 3 (3=40-59% damage) | 2 (2=20-39% damage) | 1 (1=0-19% damage) | 5 (5=80-100% damage) |
